Experimental data as given in patent US20260166175A1, “FABRICATION OF CYCLODEXTRIN PARTICLES AND CRYOGELS AND METHODS OF USING AND MAKING THEREOF” (University of South Florida, priority 2022, published 2026).

Key:
L929 fibroblasts = test: Cytotoxicity (MTT cell viability) on L929 fibroblasts; assay type: cell-based; settings: 1.0 mg/mL, 24 h incubation
Method: For the biocompatibility analysis, L929 fibroblasts were cultured in an air-humidified incubator (5% CO2 atmosphere) in DMEM supplemented with 10% fetal bovine serum (FBS) at up to 70% cell confluency. The cytotoxicity analysis of CD-based materials was performed by MTT assay which determines the metabolic activity of living cells.
The L929 fibroblast cell suspension was adjusted to a density of 5×10^5 cells mL^−1 and gently homogenized. Then, 100 µL of this cell suspension was seeded onto wells on a 96-well plate. The well-plate was incubated at 37° C. under 5% CO2 in an air-humidified incubator for 24 h. After adherence of the fibroblasts, the culture medium was removed from the wells and 100 μL of CD-based particle suspension in culture medium DMEM at different concentrations between 50 and 1000 μg/mL was added to the cells. The plate was incubated at 37° C. under 5% CO2 in an air-humidified incubator for 24 h more. At the end of the incubation, the medium was removed from the wells, the cells were washed with phosphate-buffered saline solution (PBS) two times. After this step, 100 μL of MTT (Tetrazolium dye) at 0.5 mg/mL concentration was added to each well. The plate was incubated at room temperature in the dark for 4 h. Then, MTT solution was removed from the wells and 200 μL of DMSO was placed into the wells to dissolve the blue formazan crystals. Finally, the absorbance values were measured at 590 nm with a plate reader (Thermo Scientific™ Multiskan™). The absorbance value of control group was accepted as 100% viability and the decrease in cell viability % was estimated based on the absorbance values of the wells treated with CD-based materials by the following equation, Cell viability
Where Amaterial is the absorbance value of the cells interacting with CD-based materials and Acontrol is the absorbance value of the untreated cells as control. All assays were carried out in triplicate and the results are given with standard deviations.

Human blood = test: Blood clotting assay; settings: 1 mg/mL
Method: Hemolysis and blood clotting assays were performed to investigate the blood compatibility of linear α-CD, β-CD, and γ-CD and their particle forms. Human blood was obtained from healthy volunteers and approved by the Clinical Research Ethics Committee of Canakkale Onsekiz Mart University (2011-KAEK-27/2022-2200063689) and placed into tubes containing EDTA. Before the analysis, all solutions were preheated to 37° C.
For the blood clotting assay, 64 μL of 0.2 M CaCl2 aqueous solution was mixed with 810 μL of blood containing EDTA and immediately 270 μL of this blood was covered with 10 mg of linear CD or CD particle. After 10 min, 10 mL of DI water was slowly added into the tubes and centrifuged at 100 g for 1 minute. Then 10 mL of supernatant solution containing non-clotting blood was taken from the tube and diluted with 40 mL of DI water. In the separation tube, 250 μL of the blood containing EDTA was dispersed in 50 mL of DI water as a control. The blood solution was incubated at 37.5° C. in a water bath for 1 h and then, the absorbance value of the supernatant was measured at 542 nm by using UV-Vis spectroscopy. The blood clotting index of the linear CD or CD particles was evaluated from the following equation.
Where Amaterial is the absorbance value of the blood solution interacted with the CD-based materials and Acontol is the absorbance value of the blood solution without the CD-based materials as a control. All assays were carried out in triplicate and the results are given with standard deviations.

[1] = Bisphenol A or curcumin loading into p(CD) particles (adsorption); assay type: physicochemical; settings: for absorbed BPA: guest BPA; for absorbed CUR: guest CUR
Method: Then, BPA-loaded CD-based particles were washed with ethanol-water (1:1) mixture one time by centrifugation at 10 000 rpm for 10 min. The BPA loaded CD-based particles were dried by freeze dryer for 48 h. Similarly, curcumin (CUR) was loaded into p(α-CD), p(β-CD), and p(γ-CD) particles by using the same procedure as described above. […] The CUR-loaded p(CD) materials were dried by freeze dryer for 48 h. The absorbance value of the BPA/CUR solutions before and after the loading processes were measured by using UV-Vis spectroscopy (SP-UV300SRB, Spectrum, China) at 275 nm and 425 nm for BPA and CUR, respectively against the previously constructed corresponding calibration curves for BPA and CUR prepared in ethanol-water mixtures. The ethanol-water solution was prepared at 1:7 and 3:2 volume ratios for BPA and CUR, respectively.

| blood clotting index (Human blood) | absorbed BPA [1] | absorbed CUR [1] | Structure (SMILES) | cell viability (L929 fibroblasts) |
| --- | --- | --- | --- | --- |
| 92.3±2.3% | 0.279 mmol/mmol | 0.398 mmol/mmol | OCC1OC2OC3C(CO)OC(OC4C(CO)OC(OC5C(CO)OC(OC6C(CO)OC(OC7C(CO)OC(OC8C(CO)OC(OC1C(O)C2O)C(O)C8O)C(O)C7O)C(O)C6O)C(O)C5O)C(O)C4O)C(O)C3O (stereo not drawn) [β-CD, β-cyclodextrin] | 89±14% |
| 93.6±2.2% | 0.158 mmol/mmol | 0.482 mmol/mmol | OCC1OC2OC3C(CO)OC(OC4C(CO)OC(OC5C(CO)OC(OC6C(CO)OC(OC7C(CO)OC(OC1C(O)C2O)C(O)C7O)C(O)C6O)C(O)C5O)C(O)C4O)C(O)C3O (stereo not drawn) [α-CD, α-cyclodextrin] | 90±7% |
| 98.4±0.7% | 0.222 mmol/mmol | 0.416 mmol/mmol | OCC1OC2OC3C(CO)OC(OC4C(CO)OC(OC5C(CO)OC(OC6C(CO)OC(OC7C(CO)OC(OC8C(CO)OC(OC9C(CO)OC(OC1C(O)C2O)C(O)C9O)C(O)C8O)C(O)C7O)C(O)C6O)C(O)C5O)C(O)C4O)C(O)C3O (stereo not drawn) [γ-CD, γ-cyclodextrin] | 95±14% |
